This passage reports MIC results from DBAASP.

Test systems include Botrytis cinerea; Escherichia coli DC2; Escherichia coli UB1005; Escherichia coli BW25113.
Common to all, as to assay: ≥ marks a high value that may be exact or a test limit, other limits are often not marked, values filed in µg/mL are converted to µM
Experiment [1] has as its system Candida albicans ATCC 10231.
For experiment [2], the system named is Escherichia coli ATCC 11775.
The subject of experiment [3] is Staphylococcus aureus ATCC 12600.
The test system of experiment [4] is Pseudomonas aeruginosa Ps4.
Experiment [5] concerns Micrococcus luteus ATCC 9341.
Experiment [6] has as its system Corynebacterium xerosis C875.
The subject of experiment [7] is Staphylococcus epidermidis C621.
For experiment [8], the system named is Bacillus subtilis ATCC 6633.
Experiment [9] concerns Enterococcus faecalis ATCC 29212.
In experiment [10] the test system is Escherichia coli ATCC 25922.
Experiment [11] relates to Pseudomonas aeruginosa ATCC 27853.
In experiment [12] the test system is Staphylococcus aureus ATCC 25923.
Experiment [13] concerns Escherichia coli NCTC 10418.

In brackets after ≈: the same amount, converted by molar mass. Some results are limits rather than exact numbers.

A word on the MIC: it is the lowest concentration found to suppress growth. A higher MIC goes with weaker potency.

Regarding `CC(C)C[C@H](NC(=O)[C@H](C)NC(=O)[C@H](CO)NC(=O)[C@@H](NC(=O)[C@@H](NC(=O)[C@H](CO)NC(=O)[C@H](CCCCN)NC(=O)[C@@H](NC(=O)[C@H](CC(C)C)NC(=O)CNC(=O)[C@H](CC(C)C)NC(=O)[C@H](CC(C)C)NC(=O)[C@H](CC(=O)O)NC(=O)[C@@H](N)Cc1ccccc1)C(C)C)C(C)C)C(C)C)C(N)=O` [FDLLGLVKSVVSAL], the MIC against Botrytis cinerea is 5 µM (≈ 7.3 µg/mL); in experiment [1] it was 100 µM (≈ 146 µg/mL); in experiment [2], no less than 200 µM; in experiment [3], 25 µM (≈ 36.5 µg/mL).

With `CC[C@H](C)[C@H](NC(=O)[C@H](CCCN=C(N)N)NC(=O)[C@H](Cc1c[nH]c2ccccc12)NC(=O)[C@H](CC(N)=O)NC(=O)[C@H](CCCN=C(N)N)NC(=O)[C@H](CCC(N)=O)NC(=O)[C@H](Cc1c[nH]c2ccccc12)NC(=O)[C@@H](N)Cc1ccccc1)C(=O)N[C@@H](CCCN=C(N)N)C(=O)N[C@@H](CCCN=C(N)N)C(N)=O` [FWQRNWRIRR], the MIC in experiment [4] was no less than 165 µM.

In the case of `CC[C@H](C)[C@H](N)C(=O)N[C@@H](C)C(=O)N1CCC[C@H]1C(=O)N[C@@H](Cc1c[nH]c2ccccc12)C(=O)N[C@@H](CCCCN)C(=O)N[C@@H](Cc1c[nH]c2ccccc12)C(=O)N1CCC[C@H]1C(=O)N[C@@H](Cc1c[nH]c2ccccc12)C(=O)N[C@@H](Cc1c[nH]c2ccccc12)C(=O)N1CCC[C@H]1C(=O)N[C@@H](Cc1c[nH]c2ccccc12)C(=O)N[C@@H](CCCN=C(N)N)C(=O)N[C@@H](CCCN=C(N)N)C(N)=O` [IAPWKWPWWPWRR], the MIC in experiment [5] stood at 0.4 µM (≈ 0.746 µg/mL).

With `C[C@H](NC(=O)[C@H](C)NC(=O)[C@H](C)NC(=O)[C@H](CS)NC(=O)[C@H](C)NC(=O)[C@H](C)NC(=O)[C@H](C)NC(=O)[C@H](CCCCN)NC(=O)[C@@H](N)CCCCN)C(=O)N[C@@H](C)C(=O)N[C@@H](C)C(=O)N[C@@H](CS)C(=O)N[C@@H](C)C(=O)N[C@@H](C)C(=O)N[C@@H](Cc1c[nH]c2ccccc12)C(=O)N[C@@H](C)C(=O)N[C@@H](C)C(=O)N[C@@H](CS)C(=O)N[C@@H](C)C(=O)N[C@@H](C)C(=O)N[C@@H](C)C(=O)N[C@@H](CCCCN)C(=O)N[C@@H](CCCCN)C(=O)N[C@@H](CCCCN)C(=O)N[C@@H](CCCCN)C(N)=O` [KKAAACAAAAACAAWAACAAAKKKK], the MIC was 1 µM (≈ 2.35 µg/mL) in [6], 8 µM (≈ 18.8 µg/mL) against Escherichia coli DC2, 16 µM (≈ 37.6 µg/mL) with Escherichia coli UB1005 and no less than 32 µM in experiment [7].

As to `C[C@H](NC(=O)[C@H](C)NC(=O)[C@H](C)NC(=O)[C@H](Cc1ccccc1)NC(=O)[C@H](C)NC(=O)[C@H](C)NC(=O)[C@H](C)NC(=O)[C@H](CCCCN)NC(=O)[C@@H](N)CCCCN)C(=O)N[C@@H](C)C(=O)N[C@@H](C)C(=O)N[C@@H](Cc1ccccc1)C(=O)N[C@@H](C)C(=O)N[C@@H](C)C(=O)N[C@@H](Cc1c[nH]c2ccccc12)C(=O)N[C@@H](C)C(=O)N[C@@H](C)C(=O)N[C@@H](Cc1ccccc1)C(=O)N[C@@H](C)C(=O)N[C@@H](C)C(=O)N[C@@H](C)C(=O)N[C@@H](CCCCN)C(=O)N[C@@H](CCCCN)C(=O)N[C@@H](CCCCN)C(=O)N[C@@H](CCCCN)C(N)=O` [KKAAAFAAAAAFAAWAAFAAAKKKK], the MIC was 1 µM (≈ 2.48 µg/mL) in [8]; 0.25 µM (≈ 0.62 µg/mL) in experiment [6]; greater than 32 µM in [9]; greater than 32 µM in [10]; 4 µM (≈ 9.92 µg/mL) in the experiment on Escherichia coli DC2; 16 µM (≈ 39.7 µg/mL) in the experiment on Escherichia coli UB1005. Also, the MIC in experiment [11] is 8 µM (≈ 19.8 µg/mL); in experiment [12], greater than 32 µM; in [7] it was 2 µM (≈ 4.96 µg/mL).

Regarding `C[C@H](NC(=O)[C@H](C)NC(=O)[C@H](C)NC(=O)[C@H](Cc1ccccc1)NC(=O)[C@H](C)NC(=O)[C@H](CCCCN)NC(=O)[C@@H](N)CCCCN)C(=O)N[C@@H](C)C(=O)N[C@@H](C)C(=O)N[C@@H](Cc1ccccc1)C(=O)N[C@@H](C)C(=O)N[C@@H](C)C(=O)N[C@@H](Cc1c[nH]c2ccccc12)C(=O)N[C@@H](C)C(=O)N[C@@H](C)C(=O)N[C@@H](Cc1ccccc1)C(=O)N[C@@H](C)C(=O)N[C@@H](CCCCN)C(=O)N[C@@H](CCCCN)C(=O)N[C@@H](CCCCN)C(=O)N[C@@H](CCCCN)C(N)=O` [KKAFAAAAAFAAWAAFAKKKK], the MIC in experiment [8] is 2 µM (≈ 4.39 µg/mL); in experiment [6], 0.5 µM (≈ 1.1 µg/mL); in experiment [9], greater than 32 µM; in [10], 32 µM (≈ 70.3 µg/mL); in the experiment on Escherichia coli DC2, 4 µM (≈ 8.78 µg/mL); in the experiment with Escherichia coli UB1005, 8 µM (≈ 17.6 µg/mL). The MIC in experiment [11] was greater than 32 µM; in experiment [12], greater than 32 µM; in [7], 8 µM (≈ 17.6 µg/mL).

`C[C@H](NC(=O)[C@H](C)NC(=O)[C@H](C)NC(=O)[C@H](Cc1ccccc1)NC(=O)[C@H](C)NC(=O)[C@H](C)NC(=O)[C@H](Cc1c[nH]c2ccccc12)NC(=O)[C@H](C)NC(=O)[C@H](C)NC(=O)[C@H](Cc1ccccc1)NC(=O)[C@H](C)NC(=O)[C@H](C)NC(=O)[C@H](C)NC(=O)[C@H](C)NC(=O)[C@H](C)NC(=O)[C@H](Cc1ccccc1)NC(=O)[C@H](C)NC(=O)[C@H](C)NC(=O)[C@H](C)NC(=O)[C@H](CCCCN)NC(=O)[C@H](CCCCN)NC(=O)[C@H](CCCCN)NC(=O)[C@H](CCCCN)NC(=O)[C@H](CCCCN)NC(=O)[C@@H](N)CCCCN)C(N)=O` [KKKKKKAAAFAAAAAFAAWAAFAAA]: the minimal inhibitory concentration (MIC) worked out at 1 µM (≈ 2.48 µg/mL) in experiment [6]; 16 µM (≈ 39.7 µg/mL) in experiment [10]; 8 µM (≈ 19.8 µg/mL) against Escherichia coli DC2; 16 µM (≈ 39.7 µg/mL) in the experiment with Escherichia coli UB1005; 32 µM (≈ 79.4 µg/mL) in experiment [11]; 4 µM (≈ 9.92 µg/mL) in [7].

For `CC[C@H](C)[C@@H]1NC(=O)[C@H](CC(C)C)NC(=O)[C@@H](NC(=O)[C@H](Cc2ccccc2)NC(=O)[C@H](CC(C)C)NC(=O)[C@H](CCCCN)NC(=O)[C@@H]2CCCN2C(=O)[C@H](CC(C)C)NC(=O)[C@H](C)NC(=O)[C@H](C)NC(=O)[C@H](CC(C)C)NC(=O)[C@H](C)NC(=O)[C@H](CC(C)C)NC(=O)[C@H](CO)NC(=O)[C@H](CC(C)C)NC(=O)[C@@H](N)CC(C)C)CSSC[C@@H](C(=O)O)NC(=O)[C@H](CCCCN)NC(=O)[C@H](CCCCN)NC(=O)[C@H](Cc2ccccc2)NC1=O` [LLSLALAALPKLFCLIFKKC], the MIC amounted to 25 µM (≈ 55.1 µg/mL) in experiment [2] and 12.5 µM (≈ 27.5 µg/mL) in experiment [3].

As for `CSCC[C@H](NC(=O)[C@H](C)NC(=O)[C@H](C)NC(=O)[C@@H]1CCCN1C(=O)[C@H](CO)NC(=O)[C@@H](N)CC(C)C)C(=O)N[C@@H](C)C(=O)N[C@@H](CO)C(=O)N[C@@H](CC(C)C)C(=O)N[C@@H](C)C(N)=O` [LSPAAMASLA], the MIC with Botrytis cinerea was no less than 200 µM; in experiment [1], greater than 200 µM; in experiment [2] it was no less than 200 µM; in experiment [3], no less than 200 µM.

`CC(C)C[C@H](NC(=O)[C@H](Cc1ccc(O)cc1)NC(=O)[C@@H]1CCCN1)C(=O)N1CCC[C@H]1C(=O)N[C@@H](CCCN=C(N)N)C(=O)N1CCC[C@H]1C(=O)NCC(=O)N[C@@H](CCCN=C(N)N)C(=O)N[C@@H](CCCN=C(N)N)C(=O)N1CCC[C@H]1C(=O)N[C@@H](CCCN=C(N)N)C(=O)N[C@@H](Cc1ccccc1)C(=O)N1CCC[C@H]1C(=O)N1CCC[C@H]1C(=O)N1CCC[C@H]1C(=O)N[C@@H](Cc1ccccc1)C(=O)N1CCC[C@H]1C(=O)O` [PYLPRPGRRPRFPPPFP] gave an MIC with Escherichia coli BW25113 of no less than 64 µM.

Regarding `CC[C@H](C)[C@H](NC(=O)[C@@H]1CCCN1C(=O)[C@@H]1CCCN1C(=O)[C@H](CCCN=C(N)N)NC(=O)[C@H](Cc1ccccc1)NC(=O)[C@@H](N)CCCN=C(N)N)C(=O)N[C@@H](CCCN=C(N)N)C(=O)N[C@@H](CCCN=C(N)N)C(=O)N1CCC[C@H]1C(=O)N1CCC[C@H]1C(=O)N[C@H](C(=O)N[C@@H](CCCN=C(N)N)C(=O)N1CCC[C@H]1C(=O)N1CCC[C@H]1C(=O)N[C@@H](Cc1ccccc1)C(=O)N[C@@H](Cc1c[nH]c2ccccc12)C(=O)N1CCC[C@H]1C(=O)O)[C@@H](C)CC` [RFRPPIRRPPIRPPFWP], in the experiment on Escherichia coli BW25113, the MIC came out at 16 µM (≈ 35 µg/mL).

In the case of `CSCC[C@H](NC(=O)[C@H](Cc1c[nH]c2ccccc12)NC(=O)[C@@H]1CCCN1C(=O)[C@@H]1CCCN1C(=O)[C@H](Cc1ccccc1)NC(=O)[C@@H](NC(=O)[C@H](Cc1cnc[nH]1)NC(=O)[C@H](Cc1ccccc1)NC(=O)[C@@H](N)CO)C(C)C)C(=O)N[C@H]1CSSC[C@@H](C(=O)O)NC(=O)[C@H](CCCCN)NC(=O)[C@H](CCCCN)NC(=O)[C@H](CC(C)C)NC(=O)[C@H](CO)NC(=O)[C@H](CCCCN)NC1=O` [SFHVFPPWMCKSLKKC], the MIC in experiment [13] is no less than 70 µM.
